Assay results taken from publication PMC6212778, “Site-specific amino acid substitution in dodecameric peptides determines the stability and unfolding of c-MYC quadruplex promoting apoptosis in cancer cells” (Nucleic Acids Research, 2018).

Assays:
[1] = tested on: KR12C (synthetic, derived from human LL37); assay: ITC; conditions: ITC: 10 mM potassium phosphate pH 7.0, 100 mM KCl, 25 C, 20 uM peptide in cell, 500 uM G4 DNA in syringe, one-site fit. NMR: same buffer, 10% D2O, NOESY at …; for binding signal (fold lower affinity than c-MYC G4): 100 mM KCl, fold order read as BCL-2 then telomere
[2] = tested on: KR12C (synthetic, derived from human LL37); assay: CD melting; conditions: ITC: 10 mM potassium phosphate pH 7.0, 100 mM KCl, 25 C; 20 uM peptide in cell, 500 uM G4 DNA in syringe; one-site fit. NMR: same buffer, 10% D2O, NOESY at …
[3] = tested on: c-MYC promoter with Pu19 isomer in MCF-7 cells; assay: Dual-luciferase assay, c-MYC promoter under control of Pu19; type: cell-based, human; conditions: MCF-7, 24 h peptide treatment
Description: (§1) MCF-7 cells are sub-cultured into 24-well microtiter plates at a cell density of 1 × 10^5 cells/well. Reporter constructs (c-MYC, BCL-2, KRAS and VEGF-A) (500 ng) with and/or without the G-quadruplex scaffolds triggering the expression of Renilla luciferase are co-transfected with 50 ng of pGL3-control vectors (Promega) (used as internal control), encoding firefly luciferase into MCF-7 cells using Lipofectamine® 3000 transfection reagent (Thermo-Fisher Scientific) following manufacturer's recommendations (Supplementary information Section 1). Twenty four hours post-transfection, cells are treated with peptides (FK13, KR12A, KR12B, KR12C, KR12D and KR12E) at an increasing concentration gradient.
(§2) Dual-luciferase assays are performed to examine the intracellular selectivity of peptides for c-MYC quadruplex isomers (Pu27, Myc22 and Pu19) over other oncogenic quadruplexes (BCL-2, VEGF-A and KRAS) of different topologies. The role of peptide-quadruplex complex in oncogene promoter activation is investigated in contrast to the GQ-null promoter constructs into MCF-7 cells ([67]). After 24 h of peptide treatment, cells are washed and lysed into 100 μl 1× Passive lysis buffer (PLB) for 15 min at room temperature. Renilla and firefly Luciferase activities in 25 μl lysate are quantified by Dual-Luciferase® reporter assay system (Promega) as per manufacturer's recommendations. Renilla luciferase enzyme activity is normalized to that of the firefly luciferase activity and luminescence of the peptide-treated samples are normalized to the untreated ones, which yield the fold induction values for Renilla activities by different quadruplex structures in presence and absence of synthetic peptides. Luminescence of each sample is detected in GloMax® 20/20 Single-Tube Luminometer (Promega) in triplicates and averaged from three independent experiments.

[4] = tested on: native c-MYC quadruplex (Pu27); assay: ITC of peptides with native c-MYC quadruplex Pu27 in potassium phosphate buffer; type: binding, human; conditions: 25°C, 20 μM peptide in cell, 500 μM Pu27 in syringe, 10 mM potassium phosphate, 0.1 M KCl, pH 7.0, one-site model
Description: The putative wild-type and truncated G-quadruplex forming sequences (Table 2 and Supplementary Table S1), located at the upstream of c-MYC promoter are reconstituted in 10 mM Potassium Phosphate buffer (pH 7.0) having 100 mM potassium chloride (KCl). The sequences are allowed to evolve G-quadruplex structure in solution by annealing at 95°C followed by gradual cooling. (Supplementary information Section 1).
Thermodynamic attributes of the interaction profiles between peptides and putative quadruplex sequences are analysed by ITC using iTC200 Microcalorimeter at 25°C. Synthetic peptides (FK13, KR12A, KR12B, KR12C, KR12D and KR12E) are diluted to 20 μM in 10 mM Potassium phosphate buffer (10 mM K2HPO4 + 10 mM KH2PO4) containing 0.1 M KCl (pH 7.0). Syringe is filled with 500 μM quadruplex sequences present in the upstream promoter regions of c-MYC (Pu27, Pu19, and Myc22), BCL-2 (Pu30), VEGF-A (Pu22), KRAS (Pu32) oncogenes, and telomere (Tel26) dissolved into the same buffer. We also carried out the experiment for KR12C and Pu27 using MCF-7 nuclear extract as the solvent to mimic the cellular microenvironment and impart macromolecular crowding during binding events. Same concentration of oligonucleotides is injected into the identical buffer or in nuclear extract without peptides to normalize the heat of dilution of peptide-quadruplex association to that of the control before curve-fitting. Oligonucleotides are injected 20 times at an interval of 150 s into the calorimeter cell having the peptides to achieve binding saturation. The heat of reaction per injection (μcal/s) is determined by integration of the peak areas using in-built Origin 7.0 software that provides the best-fit values of enthalpy (ΔH) and entropy (ΔS) of binding, the binding stoichiometry (n), and dissociation constant (Kd) (Supplementary Tables S5(a), S5(b) and S5(c)). Data points are further simulated with ‘one-site’ binding modes (Supplementary information Section 1).

[5] = tested on: KRAS promoter (KRAS-GQ) in MCF-7 cells; assay: Dual-luciferase assay, KRAS promoter with KRAS-GQ; type: cell-based, human; conditions: MCF-7, 24 h
Description: as §1, §2

[6] = tested on: VEGF-A promoter (VEGF-A-GQ) in MCF-7 cells; assay: Dual-luciferase assay, VEGF-A promoter with VEGF-A-GQ; type: cell-based, human; conditions: MCF-7, 24 h, peptide 0–60 μM
Description: as §1, §2

c-MYC quadruplex Pu27 = assay: CD melting of free and peptide-bound Pu27; type: binding, human
Description: To understand the role of peptides (FK13, KR12A, KR12B, KR12C, KR12D and KR12E) in stabilizing native and truncated isomers of c-MYC G-quadruplex, we have performed temperature-driven CD melting experiments for free and peptide-bound complexes in JASCO-J815 CD spectrometer. We have gradually titrated the peptides into 10 μM of putative quadruplexes and acquired the spectra after 5 min of peptide addition to allow complex formation and equilibration. Samples are heated from 20 to 95°C having the temperature gradient and the delay time of 2.5°C/min and 150 s respectively. Since the quadruplexes unfold at higher temperatures and revert back to their initial conformations upon renaturation, we have assumed a ‘two-state transition’ model (folded and unfolded) to analyze the melting curves and estimated the melting temperatures (Tm) by fitting the data points into sigmoidal curves (Supplementary information Section 1).

[7] = tested on: BCL-2 promoter (BCL-2-GQ) in MCF-7 cells; assay: Dual-luciferase assay, BCL-2 promoter with BCL-2-GQ; type: cell-based, human; conditions: MCF-7, 24 h, peptide 0–60 μM
Description: as §1, §2

[8] = tested on: c-MYC promoter with Myc22 isomer in MCF-7 cells; assay: Dual-luciferase assay, c-MYC promoter under control of Myc22; type: cell-based, human; conditions: MCF-7, 24 h peptide treatment
Description: as §1, §2

[9] = tested on: c-MYC promoter (Pu27-GQ) in MCF-7 cells; assay: Dual-luciferase assay, c-MYC promoter with Pu27-GQ; type: cell-based, human; conditions: MCF-7, 24 h, peptide 0–60 μM
Description: as §1, §2

[10] = tested on: KR12E (synthetic, derived from human LL37); assay: CD melting; conditions: destabilizes; ITC: 10 mM potassium phosphate pH 7.0, 100 mM KCl, 25 C; 20 uM peptide in cell, 500 uM G4 DNA in syringe; one-site fit. NMR: same buffer, 10% D2O, NOESY at …
[11] = tested on: KR12A (synthetic, derived from human LL37); assay: CD melting; conditions: destabilizes; ITC: 10 mM potassium phosphate pH 7.0, 100 mM KCl, 25 C; 20 uM peptide in cell, 500 uM G4 DNA in syringe; one-site fit. NMR: same buffer, 10% D2O, NOESY at …
[12] = tested on: KR12E (synthetic, derived from human LL37); assay: ITC; conditions: ITC: 10 mM potassium phosphate pH 7.0, 100 mM KCl, 25 C; 20 uM peptide in cell, 500 uM G4 DNA in syringe; one-site fit. NMR: same buffer, 10% D2O, NOESY at …
[13] = tested on: KR12B (synthetic, derived from human LL37); assay: ITC; conditions: ITC: 10 mM potassium phosphate pH 7.0, 100 mM KCl, 25 C; 20 uM peptide in cell, 500 uM G4 DNA in syringe; one-site fit. NMR: same buffer, 10% D2O, NOESY at …
[14] = tested on: KR12D (synthetic, derived from human LL37); assay: ITC; conditions: ITC: 10 mM potassium phosphate pH 7.0, 100 mM KCl, 25 C; 20 uM peptide in cell, 500 uM G4 DNA in syringe; one-site fit. NMR: same buffer, 10% D2O, NOESY at …
[15] = tested on: KR12A (synthetic, derived from human LL37); assay: ITC; conditions: ITC: 10 mM potassium phosphate pH 7.0, 100 mM KCl, 25 C; 20 uM peptide in cell, 500 uM G4 DNA in syringe; one-site fit. NMR: same buffer, 10% D2O, NOESY at …
[16] = molecular target: T1, FK13 (LL37-derived peptide) (Homo sapiens (synthetic, derived from …, UniProt P49913 150-162)); assay: ITC; 100 mM KCl; ITC: 10 mM potassium phosphate pH 7.0, 100 mM KCl, 25 C; 20 uM peptide in cell, 500 uM G4 DNA in syringe; one-site fit. NMR: same buffer, 10% D2O, NOESY at 15 C; conditions: G4, unimolecular
T1 chain: FKRIVQRIKDFLR

BCL-2 Pu30 quadruplex
binding signal (fold lower affinity than c-MYC G4) [1]: 3

GGAGGGTGGGGAGGGTGGGGAA [Myc22]
binding signal (delta Tm, deg C) [2]: 6.91

N – KRIVKRIKKWLL – C [KR12E, dodecameric mutant peptide derived from FK13 / LL37]
c-MYC promoter activation under control of Pu19 [3]: no regulatory effect
K A [4]: 18800 M⁻¹
Kd [4]: 53.2 µM
ΔG (binding energy) [4]: -5.89 kcal/mol
ΔH (binding enthalpy) [4]: -168 kcal/mol
ΔS (entropy) [4]: −544 cal/mol/deg
KRAS promoter activity ([5]; peptide 0–60 μM): no significant effects
VEGF-A promoter activity [6]: no significant effects
decrease of the Tm of Pu27 upon peptide binding (c-MYC quadruplex Pu27; 10 μM quadruplex, two-state model): ~30 °C
BCL-2 promoter activity [7]: no significant effects
c-MYC promoter activation under control of Myc22 [8]: no regulatory effect
c-MYC promoter activity [9]: no significant effects

N – KRIVKVIKKWLR – C [KR12D, dodecameric mutant peptide derived from FK13 / LL37]
c-MYC promoter activation under control of Pu19 [3]: no regulatory effect
K A [4]: 20400 M⁻¹
Kd [4]: 49 µM
ΔG (binding energy) [4]: -5.774 kcal/mol
ΔH (binding enthalpy) [4]: -136 kcal/mol
ΔS (entropy) [4]: −437 cal/mol/deg
KRAS promoter activity, fold inhibition ([5]; at higher concentration): ~1.6 fold
VEGF-A promoter activity [6]: no significant effects
effect on thermal stability of Pu27 (c-MYC quadruplex Pu27): did not significantly induce thermal stability
BCL-2 promoter activity [7]: no significant effects
c-MYC promoter activation under control of Myc22 [8]: no regulatory effect
c-MYC promoter activity [9]: no significant effects

TGGGGAGGGTGGGGAGGGT [Pu19]
binding signal (delta Tm, deg C) [2]: 10.9

TGGGGAGGGTGGGGAGGGTGGGGAAGG [Pu27 c-MYC quadruplex]
binding signal (delta Tm, deg C) [10]: -30
binding signal (delta Tm, deg C) [2]: 9
binding signal (delta Tm, deg C) [11]: -30
Kd [12]: 53.2 µM
Kd [13]: 37.3 µM
Kd [1]: 8.06 µM
Kd ([1]; MCF-7 nuclear extract as solvent (crowding)): 0.901 µM
Kd [14]: 49 µM
Kd [15]: 61.7 µM

Tel26 telomeric quadruplex
binding signal (fold lower affinity than c-MYC G4) [1]: 4

TGGGGAGGGTGGGGAGGGTGGGGAAGG (structured_DNA) [Pu27 c-MYC quadruplex]
Kd [16]: 34.6 µM
